From ChEMBL document CHEMBL3217603, “Synthesis and NMDA receptor affinity of dexoxadrol analogues with modifications in position 4 of the piperidine ring” (Medchemcomm, 2010)

Columns and labels:
[1] = test system: Sigma-2 receptor (Rattus norvegicus); experiment: Displacement of [3H]-di-o-tolylguanidine from sigma-2 receptor in rat liver homogenate at 1 uM by liquid scintillation counting
Sus scrofa = species: Sus scrofa; experiment: Displacement of [3H]-(+)-MK801 from pig brain phencyclidine binding site of NMDA receptor at 1 uM by scintillation counting
[2] = molecular target: Sigma-2 receptor (Rattus norvegicus); experiment: Displacement of [3H]-di-o-tolylguanidine from sigma-2 receptor in rat liver homogenate by liquid scintillation counting
[3] = Displacement of [3H]-(+)-MK801 from pig brain phencyclidine binding site of NMDA receptor by scintillation counting; design: species or system Sus scrofa

Row | Compound | inhibition [1] | inhibition (Sus scrofa) | Ki [2] | Ki [3]
1 | N[C@@H]1CCN[C@H]([C@@H]2COC(c3ccccc3)(c3ccccc3)O2)C1 (racemic) | 15% | 26% |  | 
2 | CO[C@H]1CCN[C@H]([C@@H]2COC(c3ccccc3)(c3ccccc3)O2)C1 (racemic) | 23% | 21% |  | 
3 | O=C(OCc1ccccc1)N1CC[C@H](NCc2ccccc2)C[C@H]1[C@H]1COC(c2ccccc2)(c2ccccc2)O1 (racemic) | 8% | 15% |  | 
4 | O=C(OCc1ccccc1)N1CC[C@H](NCc2ccccc2)C[C@H]1[C@@H]1COC(c2ccccc2)(c2ccccc2)O1 (racemic) |  | 30% | 442 nM | 
5 | N[C@H]1CCN[C@H]([C@@H]2COC(c3ccccc3)(c3ccccc3)O2)C1 (racemic) | 13% | 25% |  | 
6 | O=C(OCc1ccccc1)N1CC[C@@H](NCc2ccccc2)C[C@H]1[C@H]1COC(c2ccccc2)(c2ccccc2)O1 (racemic) | 14% | 20% |  | 
7 | CN[C@@H]1CCN[C@H]([C@H]2COC(c3ccccc3)(c3ccccc3)O2)C1 (racemic) | 12% | 40% |  | 
8 | CN[C@H]1CCN[C@H]([C@@H]2COC(c3ccccc3)(c3ccccc3)O2)C1 (racemic) |  | 16% | 3670 nM | 
9 | O[C@H]1CCN[C@H]([C@@H]2COC(c3ccccc3)(c3ccccc3)O2)C1 (racemic) | 30% | 3% |  | 
10 | CN[C@H]1CCN(C(=O)OCc2ccccc2)[C@H]([C@@H]2COC(c3ccccc3)(c3ccccc3)O2)C1 (racemic) | 18% | 7% |  | 
11 | CO[C@@H]1CCN[C@H]([C@@H]2COC(c3ccccc3)(c3ccccc3)O2)C1 (racemic) | 18% | 37% |  | 
12 | CO[C@H]1CCN[C@H]([C@H]2COC(c3ccccc3)(c3ccccc3)O2)C1 (racemic) | 9% |  |  | 981 nM
13 | O=C1CCN[C@H]([C@@H]2COC(c3ccccc3)(c3ccccc3)O2)C1 (racemic) |  | 84% |  | 
14 | CN[C@@H]1CCN(C(=O)OCc2ccccc2)[C@H]([C@@H]2COC(c3ccccc3)(c3ccccc3)O2)C1 (racemic) | 28% | 7% |  | 
15 | O[C@H]1CCN[C@H]([C@H]2COC(c3ccccc3)(c3ccccc3)O2)C1 (racemic) | 13% |  |  | 44 nM
16 | O[C@@H]1CCN[C@H]([C@H]2COC(c3ccccc3)(c3ccccc3)O2)C1 (racemic) | 2% |  |  | 527 nM
17 | O=C1CCN[C@H]([C@H]2COC(c3ccccc3)(c3ccccc3)O2)C1 (racemic) |  |  |  | 470 nM
18 | CN[C@@H]1CCN[C@H]([C@@H]2COC(c3ccccc3)(c3ccccc3)O2)C1 (racemic) | 44% | 16% |  | 
19 | N[C@@H]1CCN[C@H]([C@H]2COC(c3ccccc3)(c3ccccc3)O2)C1 (racemic) | 26% | 44% |  | 
20 | CN[C@H]1CCN(C(=O)OCc2ccccc2)[C@H]([C@H]2COC(c3ccccc3)(c3ccccc3)O2)C1 (racemic) | 35% | 6% |  | 
21 | CN[C@H]1CCN[C@H]([C@H]2COC(c3ccccc3)(c3ccccc3)O2)C1 (racemic) | 37% | 30% |  | 
22 | N[C@H]1CCN[C@H]([C@H]2COC(c3ccccc3)(c3ccccc3)O2)C1 (racemic) | 17% | 17% |  | 
23 | O[C@@H]1CCN[C@H]([C@@H]2COC(c3ccccc3)(c3ccccc3)O2)C1 (racemic) | 0% | 0% |  | 
24 | O=C(OCc1ccccc1)N1CC[C@@H](NCc2ccccc2)C[C@H]1[C@@H]1COC(c2ccccc2)(c2ccccc2)O1 (racemic) | 23% | 8% |  | 
25 | CN[C@@H]1CCN(C(=O)OCc2ccccc2)[C@H]([C@H]2COC(c3ccccc3)(c3ccccc3)O2)C1 (racemic) | 42% | 10% |  | 
26 | CO[C@@H]1CCN[C@H]([C@H]2COC(c3ccccc3)(c3ccccc3)O2)C1 (racemic) | 5% | 49% |  | 
